{"source": "patent US11484035B2", "about": "“Synergistic composition of a nematicide” (TELLURIS BIOTECH INDIA PRIVATE LIMITED, priority 2017, dated 2022)", "origin": "cited, not measured here", "system": "nematodes", "details": "individual peptides", "data": [{"sequence": "DLLRPVVIAPQFSRQ (Caenorhabditis elegans) [Peptide 2, 15 amino acid peptide, 99-113 amino acid stretch of CED-4 protein]", "values": [{"measurement": "effective concentration for nematicidal activity", "result": "about 1 mg/ml"}]}, {"sequence": "FPKFMQLHQKFY (Caenorhabditis elegans) [Peptide 12, 12 amino acid peptide, 529-540 amino acid stretch of CED-4 protein]", "values": [{"measurement": "effective concentration for nematicidal activity", "result": "about 1 mg/ml"}]}, {"sequence": "RQMLDRKLLLGNVPKQMTC (Caenorhabditis elegans) [Peptide 3, 19 amino acid peptide, 112-130 amino acid stretch of CED-4 protein]", "values": [{"measurement": "effective concentration for nematicidal activity", "result": "about 1 mg/ml"}]}]}
